Measurements reported in ChEMBL document CHEMBL1201862, “PubChem BioAssay data set” (2004).
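96-well plates; 48 h exposure; 5 concentrations. Endpoints by linear interpolation between flanking doses. Not reached: highest tested concentration assigned. Abbreviation: GI50, concentration required for 50% inhibition of growth.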 Activity calls are given as the source filed them. Cut-off read from the data, not from the text of the source: active = GI50 up to about 1.1 µM and inactive = higher.

How the values were obtained:
Experiment in all cases: NCI tumour cell line growth inhibition, 48 h
CCRF-CEM = test system: CCRF-CEM
HCT-15 = test system: HCT-15
HL-60 = test system: HL-60
HOP-62 = test system: HOP-62
IGROV-1 = test system: IGROV-1
K562 = test system: K562
KM12 = test system: KM12
M14 = test system: M14
MDA-MB-231 = test system: MDA-MB-231
MDA-MB-435 = test system: MDA-MB-435
MOLT-4 = test system: MOLT-4
NCI-H226 = test system: NCI-H226
OVCAR-8 = test system: OVCAR-8
RPMI-8226 = test system: RPMI-8226
SK-MEL-28 = test system: SK-MEL-28
SK-MEL-2 = test system: SK-MEL-2
SN12C = test system: SN12C
TK-10 = test system: TK-10
U-251 = test system: U-251
UO-31 = test system: UO-31

SMILES	GI50 (CCRF-CEM)	GI50 (HCT-15) [µM]	GI50 (HL-60)	GI50 (HOP-62)	GI50 (IGROV-1)	GI50 (K562)	GI50 (KM12)	GI50 (M14)	GI50 (MDA-MB-231)	GI50 (MDA-MB-435)	GI50 (MOLT-4)	GI50 (NCI-H226)	GI50 (OVCAR-8)	GI50 (RPMI-8226)	GI50 (SK-MEL-28)	GI50 (SK-MEL-2)	GI50 (SN12C)	GI50 (TK-10)	GI50 (U-251)	GI50 (UO-31)
COC(=O)/C=C\C(C#N)(C#N)/N=C/c1cc(Br)cs1	0.0914 µM (active)	2.71	0.0465 µM (active)	18.6 µM (inactive)	3.44 µM (inactive)	0.562 µM (active)	21 µM (inactive)	2.51 µM (inactive)	9.35 µM (inactive)	2.38 µM (inactive)	1.89 µM (inactive)	19.8 µM (inactive)	3.84 µM (inactive)	3.24 µM (inactive)	5.32 µM (inactive)	10.6 µM (inactive)	3.18 µM (inactive)	3.11 µM (inactive)	13.9 µM (inactive)	2.14 µM (inactive)
CC1=C(C(=O)NCC(C)O)CC(C(=O)NCC(C)O)=C(C)N1 (stereo not given)	> 100 µM (inactive)	> 100	> 100 µM (inactive)	> 100 µM (inactive)	> 100 µM (inactive)	> 100 µM (inactive)	> 100 µM (inactive)	> 100 µM (inactive)	46.5 µM (inactive)	> 100 µM (inactive)	> 100 µM (inactive)	89.7 µM (inactive)	> 100 µM (inactive)	> 100 µM (inactive)	> 100 µM (inactive)	> 100 µM (inactive)	> 100 µM (inactive)	> 100 µM (inactive)	> 100 µM (inactive)	> 100 µM (inactive)
COC1CC(O[C@H]2CC[C@@]3(C)[C@@H](CC[C@]4(O)[C@@H]3CC[C@]3(C)[C@@H](C(C)=O)[C@H](OC(=O)CC(C)C)[C@@H](OC(=O)c5ccccc5)[C@@]34O)C2)OC(C)C1OC1CC(OC)C(OC2OC(C)C(O)C(OC)C2O)C(C)O1 (stereo not given in full)	17.8 µM (inactive)	9.95	7.19 µM (inactive)	16 µM (inactive)	11.6 µM (inactive)	11 µM (inactive)	12.9 µM (inactive)	16.1 µM (inactive)	18.4 µM (inactive)	12.2 µM (inactive)	7.08 µM (inactive)	13.6 µM (inactive)	20 µM (inactive)	6.12 µM (inactive)	> 25 µM (inactive)	> 25 µM (inactive)	> 25 µM (inactive)	18.3 µM (inactive)	18 µM (inactive)	9.46 µM (inactive)
CC1OC(OC2C[C@](O)(C(=O)CF)Cc3c(O)c4c(c(O)c32)C(=O)c2ccccc2C4=O)CC(N)C1O (stereo not given in full)	< 0.01 µM (active)	0.0588	< 0.01 µM (active)	< 0.01 µM (active)	0.0877 µM (active)	< 0.0153 µM (active)	0.0305 µM (active)	0.0263 µM (active)	0.043 µM (active)	0.0746 µM (active)	< 0.01 µM (active)	< 0.01 µM (active)	0.0115 µM (active)	< 0.01 µM (active)	0.177 µM (active)	0.168 µM (active)	< 0.01 µM (active)	0.1 µM (active)	< 0.013 µM (active)	0.0392 µM (active)
Cc1cccc(C)c1NC(=O)/C(Cl)=C(/Cl)C(=O)O	2.95 µM (inactive)	16.2	2.63 µM (inactive)	> 62.2 µM (inactive)	20.8 µM (inactive)	3.23 µM (inactive)	15.3 µM (inactive)	9.29 µM (inactive)	21.3 µM (inactive)	21.9 µM (inactive)	3.99 µM (inactive)	16.4 µM (inactive)	20.2 µM (inactive)	11 µM (inactive)	18.3 µM (inactive)	16.7 µM (inactive)	18.7 µM (inactive)	14.7 µM (inactive)	21.1 µM (inactive)	14.8 µM (inactive)
NC(Cc1c[nH]c(I)n1)C(=O)O (stereo not given)	22.1 µM (inactive)	46.2	2.27 µM (inactive)	> 100 µM (inactive)	67 µM (inactive)	53.6 µM (inactive)	> 100 µM (inactive)	> 100 µM (inactive)	> 100 µM (inactive)	> 100 µM (inactive)	> 100 µM (inactive)	> 100 µM (inactive)	81.5 µM (inactive)	> 100 µM (inactive)	74.1 µM (inactive)	> 100 µM (inactive)	> 100 µM (inactive)	> 100 µM (inactive)	> 100 µM (inactive)	> 100 µM (inactive)
CCc1n[nH]c(=O)n1N	> 100 µM (inactive)	> 100	> 100 µM (inactive)	> 100 µM (inactive)	> 100 µM (inactive)	> 100 µM (inactive)	> 100 µM (inactive)	> 100 µM (inactive)	> 100 µM (inactive)	> 100 µM (inactive)	> 100 µM (inactive)	> 100 µM (inactive)	> 100 µM (inactive)	> 100 µM (inactive)	> 100 µM (inactive)	> 100 µM (inactive)	> 100 µM (inactive)	> 100 µM (inactive)	> 100 µM (inactive)	> 100 µM (inactive)
CCN(CCCl)c1cc(CN(C)C)cc(NC(=O)c2ccc(C(=O)Nc3cccc(CN(C)C)c3)cc2)c1	0.0708 µM (active)	32.4	0.0467 µM (active)	0.326 µM (active)	0.274 µM (active)	0.321 µM (active)	1.28 µM (inactive)	4.27 µM (inactive)	28.1 µM (inactive)	0.238 µM (active)	0.261 µM (active)	3.21 µM (inactive)	0.889 µM (active)	2.16 µM (inactive)	2.07 µM (inactive)	0.467 µM (active)	0.357 µM (active)	3.73 µM (inactive)	0.225 µM (active)	27.7 µM (inactive)
COc1cc2c(cc1OCCCCOc1cc(-c3ccc(F)cc3)nc(C)n1)N=C[C@@H]1CCCN1C2=O	0.135 µM (active)	0.701	0.279 µM (active)	0.451 µM (active)	0.731 µM (active)	0.267 µM (active)	0.728 µM (active)	0.678 µM (active)	1.04 µM (active)	0.652 µM (active)	0.108 µM (active)	1.05 µM (active)	0.989 µM (active)	0.0519 µM (active)	0.982 µM (active)	0.853 µM (active)	0.796 µM (active)	0.224 µM (active)	0.2 µM (active)	0.5 µM (active)
O=C(/C=C(\Nc1ccccc1O)c1ccc(Br)cc1)C(Cl)(Cl)Cl	15.4 µM (inactive)	12.2	2.36 µM (inactive)	13.6 µM (inactive)	10.3 µM (inactive)	14.2 µM (inactive)	2.75 µM (inactive)	15.5 µM (inactive)	6.95 µM (inactive)	8.89 µM (inactive)	13.9 µM (inactive)	12.1 µM (inactive)	12.6 µM (inactive)	1.79 µM (inactive)	11 µM (inactive)	8.04 µM (inactive)	7.67 µM (inactive)	6.95 µM (inactive)	3.74 µM (inactive)	2.68 µM (inactive)
COc1ccc2c(c1)C(=O)C(=O)c1cc(O)c(OC)c(OC)c1-2	0.791 µM (active)	0.91	0.104 µM (active)	0.845 µM (active)	0.791 µM (active)	0.838 µM (active)	0.979 µM (active)	0.933 µM (active)	0.957 µM (active)	0.115 µM (active)	0.114 µM (active)	5.64 µM (inactive)	0.875 µM (active)	1.09 µM (active)	0.845 µM (active)	0.861 µM (active)	0.879 µM (active)	1.01 µM (active)	0.863 µM (active)	0.925 µM (active)
O=C(O)Cc1cccc2c(=O)cc(-c3ccccc3)oc12 [MITOFLAXONE]	213 µM (inactive)	220	> 250 µM (inactive)	243 µM (inactive)	> 250 µM (inactive)	239 µM (inactive)	240 µM (inactive)	> 250 µM (inactive)	> 250 µM (inactive)	> 250 µM (inactive)	> 209 µM (inactive)	237 µM (inactive)	> 175 µM (inactive)	244 µM (inactive)	> 250 µM (inactive)	153 µM (inactive)	238 µM (inactive)	> 250 µM (inactive)	> 250 µM (inactive)	147 µM (inactive)
